# Source: the SangsterLogP compilation
# Experiment: method code SF-HPLC, from DOI: 10.1016/s0928-0987(01)00163-4, PMID: 11500258
# Settings: pH 7.4
row,logD,SMILES
1,3.4,CC(C(=O)OCCOCCOCCO)c1cccc(C(=O)c2ccccc2)c1 (stereo not drawn)
2,4.1,O=C(Cc1ccccc1Nc1c(Cl)cccc1Cl)OCCOCCO
3,3.2,COc1ccc2cc(C(C)C(=O)OCCOCCOCCOCCOCCO)ccc2c1 (stereo not drawn)
4,3.5,COc1ccc2cc(C(C)C(=O)OCCOCCOCCOCCO)ccc2c1 (stereo not drawn)
5,3.7,COc1ccc2cc(C(C)C(=O)OCCOCCOCCO)ccc2c1 (stereo not drawn)
6,3.6,CC(C(=O)OCCOCCOCCOCCO)c1cccc(C(=O)c2ccccc2)c1 (stereo not drawn)
7,2.9,COc1ccc2cc(C(C)C(=O)OCCOCCOCCOCCOCCOCCO)ccc2c1 (stereo not drawn)
8,3.5,O=C(Cc1ccccc1Nc1c(Cl)cccc1Cl)OCCOCCOCCOCCO
9,3.9,O=C(Cc1ccccc1Nc1c(Cl)cccc1Cl)OCCOCCOCCO
10,3.5,CC(C(=O)OCCOCCOCCOCCOCCOCCO)c1cccc(C(=O)c2ccccc2)c1 (stereo not drawn)
11,2.6,O=C(Cc1ccccc1Nc1c(Cl)cccc1Cl)OCCOCCOCCOCCOCCOCCO
12,3.6,CC(C(=O)OCCOCCO)c1cccc(C(=O)c2ccccc2)c1 (stereo not drawn)
13,3.9,CC(C(=O)OCCOCCOCCOCCOCCO)c1cccc(C(=O)c2ccccc2)c1 (stereo not drawn)
